Laboratory results published in patent publication US5770734A, “N-substituted-2-aminoquinolines useful for treating hypofunction of the cholinergic system” (American Home Products Corporation, priority 1992, dated 1998).
Read-outs that look alike come from different tables or passages of the source. Blank lines part the entries; values can stand above or below the compound they belong to.

Key:
M2 receptors [1] = assay: biochemical; format: binding; conditions: Table 1; ratio of M2 IC50 to M1 IC50
M2 receptors [2] = target: T1, M2 receptors (Rattus norvegicus, UniProt P10980); assay: biochemical; format: binding; conditions: read-out: ^3 H-QNB M2 IC50
T1 sequence (P10980 1-466): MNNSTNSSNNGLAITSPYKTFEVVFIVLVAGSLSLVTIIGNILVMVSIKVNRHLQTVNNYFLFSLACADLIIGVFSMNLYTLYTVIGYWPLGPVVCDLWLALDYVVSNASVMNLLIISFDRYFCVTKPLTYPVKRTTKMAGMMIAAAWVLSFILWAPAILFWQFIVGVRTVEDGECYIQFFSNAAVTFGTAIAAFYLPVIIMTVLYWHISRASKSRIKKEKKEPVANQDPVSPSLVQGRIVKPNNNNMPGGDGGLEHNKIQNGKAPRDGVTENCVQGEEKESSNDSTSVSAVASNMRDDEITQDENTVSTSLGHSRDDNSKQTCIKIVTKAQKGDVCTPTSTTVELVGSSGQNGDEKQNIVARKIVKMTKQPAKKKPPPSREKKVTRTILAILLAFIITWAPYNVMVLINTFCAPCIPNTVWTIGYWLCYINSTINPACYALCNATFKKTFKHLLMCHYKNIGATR

[3] = system: scopolamine-induced hyperactivity, a proposed muscarinic M1 -mediated effect; assay: Scopolamine-induced hyperactivity (locomotor activity); format: in vivo, rat; set-up: Total activity: unit not given here
Protocol: Compounds were evaluated for the ability to attenuate scopolamine-induced hyperactivity, a proposed muscarinic M1 -mediated effect. Animals were permitted to habituate for 30 minutes in locomotor activity chambers (Digiscan, Omnitech; Columbus, Ohio) in which infrared detectors were used to measure movement in 3 axes. The animals were then injected i.p. with vehicle alone, scopolamine alone (1.7 mg/kg) or both scopolamine and one dose of the test compound. Animals were then replaced in the chambers and locomotor activity was measured for an additional 1 hour period. Total activity measures (vertical+horizintal movements) were collected and statistically analyzed in four 15 minute periods.

M1 muscarinic receptor = target: T2, M1 muscarinic receptor (Rattus norvegicus, UniProt P08482); assay: M1 receptor binding ([^3 H]-pirenzepine); set-up: species or system rat (male Sprague-Dawley); conditions: Table 1; rat brain tissue, [^3 H]PZ 0.5 nM; read-out: ^3 H-Pirenzepine M1 IC50
T2 sequence (P08482 1-460): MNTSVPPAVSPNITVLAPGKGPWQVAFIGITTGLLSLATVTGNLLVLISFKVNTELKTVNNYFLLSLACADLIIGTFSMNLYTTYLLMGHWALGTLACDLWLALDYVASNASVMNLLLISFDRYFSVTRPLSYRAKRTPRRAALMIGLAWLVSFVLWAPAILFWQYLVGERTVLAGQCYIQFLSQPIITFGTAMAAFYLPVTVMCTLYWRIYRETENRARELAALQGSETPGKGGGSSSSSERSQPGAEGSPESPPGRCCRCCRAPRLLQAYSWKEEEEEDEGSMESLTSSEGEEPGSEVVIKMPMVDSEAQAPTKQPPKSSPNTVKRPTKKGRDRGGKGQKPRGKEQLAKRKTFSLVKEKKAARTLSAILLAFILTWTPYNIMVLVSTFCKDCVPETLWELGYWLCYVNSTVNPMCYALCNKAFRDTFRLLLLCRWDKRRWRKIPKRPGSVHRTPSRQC
Protocol: Compounds are tested for their ability to affect M1 muscarinic binding through use of [^3 H]-pirenzepine ([^3 H]PZ) as a prototypic M1 receptor ligand. Male Sprague-Dawley (Charles River) rats are used. Dose selection is typically in the concentration range of 10^-9 to 10^-4 M. Test and reference compounds are dissolved and diluted in water or ethanol and are then added to the assay buffer. The appropriate vehicle is added to the assay buffer for control testing.
The rats (approximately 300 gm body weight) have free access to food and water and are housed in groups of four to six. On the test day, the rats are euthanized by decapitation and brain tissue is dissected and homogenized using a hand-held teflon-coated pestle, in 20 volumes of 0.32M sucrose (20 strokes at 4° C.). After centrifugation (747×g for 10 minutes at 4° C.), the resultant supernatant is decanted and recentrifuged (18677×g for 20 minutes at 4° C.). The resultant pellet is resuspended in the original volume of 0.32M sucrose and frozen. After thawing, the suspension is diluted (1:1 v/v) with 10 mM Na2 HPO4 /KH2 PO4 buffer (pH=7.4). [^3 H]PZ (0.5 nM, 0.04 μCi) is then incubated with a 100 μl sample of the tissue suspension in the above buffer (1 ml final volume, including a 10 μl sample of test compound or vehicle). […] After 60 minutes of incubation at 25° C. (in the dark), the binding is terminated by vacuum filtration onto Whatman GF/B filters (pre-soaked for 60 minutes in 0.1% (w/v) polyethylenimine to reduce non-specific binding). After three washes with the previously mentioned buffer (4° C., 3 ml/wash), the vacuum is allowed to run for two minutes before the filter-trapped radioactivity is assayed by liquid scintillation spectroscopy.
Data are presented as the percent inhibition ([control-test]/control×100%) or enhancement ([test-control]/control×100%) of [^3 H]PZ binding by the test or reference compound. The IC50 value (the drug concentration which causes a 50% inhibition of specific [^3 H]PZ binding) is calculated through the use of the EDOSE program (with probit transformation written by a person for use in STAT80). Increases in [^3 H]PZ are reported as percent increase (versus control) for a given test drug concentration.

[4] = system: Scopolamine-impaired Radial Arm Maze; assay: Scopolamine-impaired Radial Arm Maze; format: in vivo, rat (male Sprague-Dawley)
Text: Male Sprague-Dawley (Charles River) rats on a 23-hour food deprivation schedule were trained in an eight arm radial maze with all arms baited. Each session consisted of two maze exposures, with a time limit of 300 seconds for each exposure. After four correct choices (first exposure), each animal was removed from the maze for one hour, then returned with only the remaining four arms baited (second exposure). Choice errors, consisting of delay errors (re-entry into any of the four arms chosen during the first exposure) and current errors (re-entry into any of the four arms chosen during the second exposure), as well as total errors were recorded. Durations for each exposure were also recorded. Statistical analysis was performed using a one-way ANOVA with Dunnett's t-test comparisons. Scopolamine (0.3 mg/kg, S.C.) and the compound of Example 1 (3,10 mg/kg, I.P,.) were administrered simultaneously 30 minutes prior to the test. All compounds were solubilized in phosphate buffered saline.

[5] = system: Alzheimer's patients and healthy elderly patients; conditions: cited from earlier work; for clinical efficacy: human, in vivo
[6] = system: scopolamine-induced memory loss; conditions: cited from earlier work
[7] = system: scopolamine-induced memory loss; conditions: monkeys; cited from earlier work
memory loss = conditions: cat, rat, and monkey; muscarinic antagonist; cited from earlier work
[8] = system: scopolamine-induced memory loss; conditions: rats; cited from earlier work
[9] = scopolamine + Example 1 3.0 mg/kg I.P., N=11
[10] = scopolamine + Example 1 10.0 mg/kg I.P., N=12
[11] = scopolamine alone 0.3 mg/kg S.C., N=12

M2/M1 (M2 receptors [1]): 58
IC50 (M2 receptors [2]): 69.3 µM
IC50 (M1 muscarinic receptor): 1.2 µM
Compound: Cc1cc(NCCCN2CCOCC2)nc2ccccc12 [Example 1, 4-Methyl-N-[3-(4-morpholinyl)propyl]-2-quinolinamine (E)-2-butenedioate 1:1 hydrate]
attenuation of scopolamine hyperactivity ([3]; 30 and 54 mg/kg i.p., 30 and 45 minutes post-injection): produced an attenuation at 30 and 45 minutes post-injection that did not differ from the scopolamine-or vehicle-only controls
minimal effective dose ([3]; Rattus norvegicus, ip, attenuation of scopolamine (1.7 mg/kg) hyperactivity, i.p., read-out: minimum effective dose): 30 mg/kg
in vivo M1 agonist activity, less effective than oxotremorine ([3]; relative to oxotremorine): 100 fold
Total activity ([3]; scopolamine + Example 1 30 mg/kg i.p., 15 min, N=10): 3792
Total activity ([3]; scopolamine + Example 1 30 mg/kg i.p., 30 min, N=10): 2069
Total activity ([3]; scopolamine + Example 1 30 mg/kg i.p., 45 min, N=10): 1839
Total activity ([3]; scopolamine + Example 1 30 mg/kg i.p., 60 min, N=10): 1697
Total activity ([3]; scopolamine + Example 1 54 mg/kg i.p., 15 min, N=10): 3602
Total activity ([3]; scopolamine + Example 1 54 mg/kg i.p., 30 min, N=10): 1899
Total activity ([3]; scopolamine + Example 1 54 mg/kg i.p., 45 min, N=10): 1722
Total activity ([3]; scopolamine + Example 1 54 mg/kg i.p., 60 min, N=10): 1535
effect on scopolamine impairment ([4]; 3.0 mg/kg I.P.): non-significantly reduced this scoplamine impairment
effect on scopolamine impairment ([4]; 10 mg/kg I.P.): had no effect
effect on increased time measures caused by scopolamine ([4]; 3, 10 mg/kg I.P.): largely unaffected
cognitive impairments seen after scopolamine treatment (conclusion) ([4]; rat, in vivo): can reduce the cognitive impairments seen after scopolamine treatment
Mean Error, Current [4, 9]: 0.55
Mean Error, Delay [4, 9]: 1.77
Mean Error, Total [4, 9]: 1.14
Mean Time 1.4 [4, 9]: 90.10 s
Mean Time 5- [4, 9]: 121.73 s
Mean Time Total [4, 9]: 105.91 s
Mean Error, Current [4, 10]: 0.33
Mean Error, Delay [4, 10]: 2.75
Mean Error, Total [4, 10]: 1.54
Mean Time 1.4 [4, 10]: 113.8 s
Mean Time 5- [4, 10]: 148.1 s
Mean Time Total [4, 10]: 130.92 s

Compound: CNC(=O)Oc1ccc2c(c1)[C@]1(C)CCN(C)[C@@H]1N2C [physostigmine]
clinical efficacy [5]: neither physostigmine nor arecoline have clinical efficacy due to undesirable side-effects, a short duration of action and a narrow active dose range
reversal of scopolamine-induced deficit ([6]; humans): can be reversed
reversal of scopolamine-induced deficit [7]: can be reversed

Compound: CN1[C@@H]2C[C@@H](OC(=O)[C@H](CO)c3ccccc3)C[C@H]1[C@@H]1O[C@@H]12 [Scopolamine]
effect on total activity ([3]; scopolamine 1.7 mg/kg, 15, 30, 45 and 60 minutes post-injection): significantly elevated total activity at all four time points
Total activity ([3]; scopolamine alone 1.7 mg/kg i.p., first experiment (Example 1), 15 min, N=9): 4349
Total activity ([3]; scopolamine alone 1.7 mg/kg i.p., first experiment (Example 1), 30 min, N=9): 2816
Total activity ([3]; scopolamine alone 1.7 mg/kg i.p., first experiment (Example 1), 45 min, N=9): 2638
Total activity ([3]; scopolamine alone 1.7 mg/kg i.p., first experiment (Example 1), 60 min, N=9): 1858
Total activity ([3]; scopolamine alone 1.7 mg/kg i.p., second experiment (oxotremorine), 15 min, N=9): 5486
Total activity ([3]; scopolamine alone 1.7 mg/kg i.p., second experiment (oxotremorine), 30 min, N=9): 4720
Total activity ([3]; scopolamine alone 1.7 mg/kg i.p., second experiment (oxotremorine), 45 min, N=9): 3718
Total activity ([3]; scopolamine alone 1.7 mg/kg i.p., second experiment (oxotremorine), 60 min, N=9): 3510
memory loss in normal humans ([6]; muscarinic antagonist): can be artificially induced
effect on delay and total errors ([4]; scopolamine 0.3 mg/kg S.C., compared to vehicle): produced a significant impairment in both delay and total errors
Mean Error, Current [4, 11]: 1.0
Mean Error, Delay [4, 11]: 2.80
Mean Error, Total [4, 11]: 1.90
Mean Time 1.4 [4, 11]: 87.25 s
Mean Time 5- [4, 11]: 169.80 s
Mean Time Total [4, 11]: 128.50 s
memory loss in animals (memory loss): can be artificially induced

Compound: lecithin
improvement on cognitive tests ([5]; Alzheimer's patients and healthy elderly patients): No significant improvement was observed on any cognitive test

Compound: COC(=O)C1=CCCN(C)C1 [arecoline]
clinical efficacy [5]: neither physostigmine nor arecoline have clinical efficacy due to undesirable side-effects, a short duration of action and a narrow active dose range
reversal of scopolamine-induced deficit [8]: can be reversed
